Test results published in patent US12441726B2, “Compounds and uses thereof” (Foghorn Therapeutics Inc., priority 2020, dated 2025).

Experiments:
BRM = BRM (Homo sapiens, UniProt P51531); assay: ATPase catalytic activity assay (ADP-Glo), BRM; conditions: 30 nM BRM, 400 μM ATP; for IC50: BRM ATPase: IC50 (uM)
BRG-1 = BRG-1 (Homo sapiens, UniProt P51532); assay: ATPase catalytic activity assay (ADP-Glo), BRG-1; conditions: for Emax: 1 h, read-out: BRG1 Max % Inhibition, ADP-Glo, 30 nM BRG-1, 400 μM ATP
BRG-1, sequence (P51532 whole entry): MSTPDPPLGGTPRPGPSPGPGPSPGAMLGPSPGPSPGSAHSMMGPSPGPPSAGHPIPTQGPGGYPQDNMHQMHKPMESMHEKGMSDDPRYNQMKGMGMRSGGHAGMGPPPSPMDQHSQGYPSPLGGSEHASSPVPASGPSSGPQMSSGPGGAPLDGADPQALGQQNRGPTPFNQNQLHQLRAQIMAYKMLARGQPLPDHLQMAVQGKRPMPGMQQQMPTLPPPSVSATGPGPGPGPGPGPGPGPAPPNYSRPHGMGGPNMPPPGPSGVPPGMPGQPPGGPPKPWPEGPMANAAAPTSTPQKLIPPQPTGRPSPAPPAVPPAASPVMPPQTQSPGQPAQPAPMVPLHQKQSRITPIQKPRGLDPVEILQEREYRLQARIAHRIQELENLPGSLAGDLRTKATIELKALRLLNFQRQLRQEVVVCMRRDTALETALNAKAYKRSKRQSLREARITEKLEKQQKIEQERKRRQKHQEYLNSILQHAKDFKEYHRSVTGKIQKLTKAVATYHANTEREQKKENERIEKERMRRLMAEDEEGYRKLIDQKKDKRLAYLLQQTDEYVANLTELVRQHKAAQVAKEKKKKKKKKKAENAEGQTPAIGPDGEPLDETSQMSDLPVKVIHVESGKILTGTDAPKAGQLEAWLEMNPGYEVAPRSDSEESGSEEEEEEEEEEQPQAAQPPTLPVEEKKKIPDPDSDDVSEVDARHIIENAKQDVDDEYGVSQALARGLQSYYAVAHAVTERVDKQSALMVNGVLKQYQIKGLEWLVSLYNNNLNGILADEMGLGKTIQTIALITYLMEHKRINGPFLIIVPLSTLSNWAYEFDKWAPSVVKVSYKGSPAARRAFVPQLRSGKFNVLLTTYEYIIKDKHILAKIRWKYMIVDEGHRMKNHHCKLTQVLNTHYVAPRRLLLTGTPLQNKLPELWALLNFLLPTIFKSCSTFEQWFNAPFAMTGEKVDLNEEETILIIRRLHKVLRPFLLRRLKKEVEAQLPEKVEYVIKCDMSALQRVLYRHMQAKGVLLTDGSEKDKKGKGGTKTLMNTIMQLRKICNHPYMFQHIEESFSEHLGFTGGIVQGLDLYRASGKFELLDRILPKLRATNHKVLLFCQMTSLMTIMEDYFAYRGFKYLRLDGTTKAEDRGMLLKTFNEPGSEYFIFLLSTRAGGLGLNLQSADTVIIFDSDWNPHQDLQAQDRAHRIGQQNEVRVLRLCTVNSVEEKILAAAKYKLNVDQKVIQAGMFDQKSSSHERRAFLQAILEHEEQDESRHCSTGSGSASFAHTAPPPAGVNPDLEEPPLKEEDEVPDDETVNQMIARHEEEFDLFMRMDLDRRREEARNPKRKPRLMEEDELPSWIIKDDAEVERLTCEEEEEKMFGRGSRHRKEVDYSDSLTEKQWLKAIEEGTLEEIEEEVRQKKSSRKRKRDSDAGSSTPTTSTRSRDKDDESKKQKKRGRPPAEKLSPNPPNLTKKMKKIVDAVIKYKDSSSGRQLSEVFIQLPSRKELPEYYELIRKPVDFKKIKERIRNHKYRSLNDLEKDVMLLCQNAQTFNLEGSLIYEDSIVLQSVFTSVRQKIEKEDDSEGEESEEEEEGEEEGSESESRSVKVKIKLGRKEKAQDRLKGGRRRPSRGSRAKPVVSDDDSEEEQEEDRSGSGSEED

BRM, sequence (P51531 whole entry): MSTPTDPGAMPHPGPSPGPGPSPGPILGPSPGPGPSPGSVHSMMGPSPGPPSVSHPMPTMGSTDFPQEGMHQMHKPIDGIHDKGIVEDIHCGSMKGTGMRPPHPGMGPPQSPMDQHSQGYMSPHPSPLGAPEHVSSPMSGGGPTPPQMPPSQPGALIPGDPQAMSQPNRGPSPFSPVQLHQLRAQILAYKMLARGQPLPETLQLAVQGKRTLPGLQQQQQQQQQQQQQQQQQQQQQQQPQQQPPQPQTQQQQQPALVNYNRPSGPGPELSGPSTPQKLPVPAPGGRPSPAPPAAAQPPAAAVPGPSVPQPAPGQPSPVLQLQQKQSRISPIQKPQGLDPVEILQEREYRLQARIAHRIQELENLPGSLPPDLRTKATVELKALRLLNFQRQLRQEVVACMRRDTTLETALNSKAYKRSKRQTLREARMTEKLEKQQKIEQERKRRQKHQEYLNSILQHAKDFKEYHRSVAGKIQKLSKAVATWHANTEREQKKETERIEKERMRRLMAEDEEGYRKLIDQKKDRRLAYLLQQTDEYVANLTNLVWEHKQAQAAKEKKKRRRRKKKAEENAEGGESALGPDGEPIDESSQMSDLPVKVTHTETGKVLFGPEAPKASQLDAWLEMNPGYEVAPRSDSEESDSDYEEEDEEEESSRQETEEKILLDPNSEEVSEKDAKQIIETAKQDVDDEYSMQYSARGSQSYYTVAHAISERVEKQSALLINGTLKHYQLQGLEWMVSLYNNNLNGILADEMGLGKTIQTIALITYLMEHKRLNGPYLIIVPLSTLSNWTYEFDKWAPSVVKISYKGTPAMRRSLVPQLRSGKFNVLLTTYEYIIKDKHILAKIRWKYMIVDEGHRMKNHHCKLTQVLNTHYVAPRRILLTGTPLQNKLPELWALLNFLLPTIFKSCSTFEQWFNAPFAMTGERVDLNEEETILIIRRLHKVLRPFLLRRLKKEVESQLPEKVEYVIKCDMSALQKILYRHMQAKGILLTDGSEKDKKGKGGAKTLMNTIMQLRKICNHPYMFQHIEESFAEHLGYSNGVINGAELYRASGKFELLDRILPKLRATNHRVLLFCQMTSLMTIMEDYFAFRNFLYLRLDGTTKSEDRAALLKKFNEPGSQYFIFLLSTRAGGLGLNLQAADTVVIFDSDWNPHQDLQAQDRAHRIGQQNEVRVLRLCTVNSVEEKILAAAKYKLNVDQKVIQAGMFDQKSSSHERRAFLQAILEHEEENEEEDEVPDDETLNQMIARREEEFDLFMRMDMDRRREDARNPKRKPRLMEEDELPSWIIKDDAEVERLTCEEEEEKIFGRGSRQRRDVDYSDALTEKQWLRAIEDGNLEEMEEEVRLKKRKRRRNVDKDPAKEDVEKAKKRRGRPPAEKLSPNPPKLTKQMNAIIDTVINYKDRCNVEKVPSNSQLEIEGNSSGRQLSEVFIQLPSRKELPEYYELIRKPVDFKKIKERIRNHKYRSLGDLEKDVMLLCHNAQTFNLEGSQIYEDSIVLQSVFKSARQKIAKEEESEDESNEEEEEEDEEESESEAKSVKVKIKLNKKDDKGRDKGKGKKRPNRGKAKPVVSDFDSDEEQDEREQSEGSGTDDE

| Compound | BRM Max % Inhibition (BRM) [%] | IC50 (BRM) [µM] | IC50 (BRG-1) [nM] | Emax (BRG-1) [%] |
| --- | --- | --- | --- | --- |
| C[C@@H]1COCCN1c1nccc(-c2ccc3cnc(CNC(=O)c4ccc5c(c4)[C@](C)(C#N)COC5)cc3n2)n1 [Compound 363] | 98 | < 0.1 | 100 to 500 | 94 |
| Cn1cc(-c2ccc3cnc(CNC(=O)c4ccc5c(c4)[C@](C)(C#N)COC5)cc3n2)c(F)n1 [Compound 364] | 90 | 0.1 to 0.5 | 500 to 1000 | 62 |
| COc1nn(C)cc1-c1ccc2cnc(CNC(=O)c3ccc4c(c3)[C@](C)(C#N)COC4)cc2c1 [Compound 367] | 102 | < 0.1 | 100 to 500 | 93 |
| C[C@@]1(C#N)COCc2ccc(C(=O)NCc3cc4nc(-c5cncc(N6CC(F)C6)n5)ccc4cn3)cc21 [Compound 374] | 101 | < 0.1 | 100 to 500 | 94 |
| O=C(NCc1cc2nc(-c3cncc(N4CCC4)n3)ccc2cn1)c1cc(F)c2c(c1)[C@](F)(C(F)F)COC2 [Compound 375] | 100 | < 0.1 | < 100 | 101 |
| C[C@H]1COCCN1c1nccc(-c2ccc3cnc(CNC(=O)c4ccc5c(c4)[C@](C)(C#N)COC5)cc3n2)n1 [Compound 376] | 98 | 0.1 to 0.5 | 500 to 1000 | 79 |
| C[C@@]1(C#N)COCc2ccc(C(=O)NCc3cc4nc(-c5cccc(C6(O)CC6)n5)ccc4cn3)cc21 [Compound 384] | 101 | < 0.1 | < 100 | 100 |
| C[C@@]1(C#N)COCc2ccc(C(=O)NCc3cc4nc(-c5cccc(N6CCC6=O)n5)ccc4cn3)cc21 [Compound 392] | 100 | < 0.1 | 100 to 500 | 95 |
| COCC1CN(c2cncc(-c3ccc4cnc(CNC(=O)c5ccc6c(c5)[C@](C)(C#N)COC6)cc4n3)n2)C1 [Compound 394] | 101 | < 0.1 | 100 to 500 | 93 |
| CC(=O)N(C)c1cccc(-c2ccc3cnc(CNC(=O)c4ccc5c(c4)[C@](C)(C#N)COC5)cc3n2)n1 [Compound 396] | 74 | 0.1 to 0.5 | > 1000 | 32 |

Continued, values first:

| BRM Max % Inhibition (BRM) [%] | IC50 (BRM) [µM] | IC50 (BRG-1) [nM] | Emax (BRG-1) [%] | Compound |
| --- | --- | --- | --- | --- |
| 99 | < 0.1 | 100 to 500 | 98 | C[C@@]1(C#N)COCc2ccc(C(=O)NCc3cc4cc(-c5nccc(N6CCC6)n5)ccc4cn3)cc21 [Compound 365] |
| 99 | < 0.1 | < 100 | 99 | CO[C@@H]1CCN(c2cncc(-c3ccc4cnc(CNC(=O)c5ccc6c(c5)[C@](C)(C#N)COC6)cc4c3)n2)C1 [Compound 366] |
| 103 | < 0.1 | 100 to 500 | 96 | C[C@@]1(F)COCc2ccc(C(=O)NCc3cc4cc(-c5cccc(N6CCC6)n5)ccc4cn3)cc21 [Compound 368] |
| 104 | < 0.1 | < 100 | 95 | C[C@@]1(C#N)COCc2ccc(C(=O)NCc3cc4cc(-c5cccc(N6CCC6)n5)ccc4cn3)cc21 [Compound 369] |
| 103 | < 0.1 | 100 to 500 | 96 | C[C@@]1(F)COCc2ccc(C(=O)NCc3cc4cc(-c5cncc(N6CCC6)n5)ccc4cn3)cc21 [Compound 370] |
| 104 | < 0.1 | < 100 | 97 | C[C@@]1(C#N)COCc2ccc(C(=O)NCc3cc4cc(-c5cncc(N6CCC6)n5)ccc4cn3)cc21 [Compound 371] |
| 93 | 0.1 to 0.5 | > 1000 | 47 | C[C@@]1(C#N)COCc2ccc(C(=O)NCc3cc4cc(-c5nccc(N6CCC6)n5)cnc4cn3)cc21 [Compound 372] |
| 103 | < 0.1 | < 100 | 100 | C[C@@]1(C#N)COCc2ccc(C(=O)NCc3cc4nc(-c5cccc(N6CCOCC6)n5)ccc4cn3)cc21 [Compound 373] |
| 98 | < 0.1 | 500 to 1000 | 89 | C[C@@]1(C#N)COCc2ccc(C(=O)NCc3cc4cc(-c5ccnc(N6CCC6)n5)cnc4cn3)cc21 [Compound 377] |
| 100 | < 0.1 | 100 to 500 | 99 | C[C@@]1(C#N)COCc2ccc(C(=O)NCc3cc4nc(-c5cccc(N6CCCC6=O)n5)ccc4cn3)cc21 [Compound 378] |
| 99 | < 0.1 | < 100 | 96 | C[C@@]1(C#N)COCc2ccc(C(=O)NCc3cc4nc(-c5cccc(N6CCC6=O)c5)ccc4cn3)cc21 [Compound 393] |
| 92 | 0.1 to 0.5 | 500 to 1000 | 62 | C[C@@]1(F)COCc2ncc(C(=O)NCc3cc4nc(-c5cncc(N6CCC6)n5)ccc4cn3)cc21 [Compound 395] |
